Experimental data from patent publication US6692939B2, “Nucleotide sequences encoding mammalian calcium activated chloride channel-adhesion molecules” (Cornell Research Foundation, Inc., priority 1997, dated 2004).

What was measured:
[1] = system: mCLCA1; experiment: whole cell recording in mCLCA1-transfected HEK293 cells; assay type: cell-based, murine; settings: for effect on Ca2+ sensitive chloride current under whole cell conditions: mCLCA1-transfected HEK293 cells
Description: (§1) In another embodiment of the invention, mCLCA1 cDNA was cut from the pBluescript vector (Stratagene) with SacI and PvuI, blunt ended with Klenow Polymerase and inserted into the tetracycline sensitive mammalian expression vector (pTet-splice, Life Technologies, Inc.) at the EcoRV site. HEK293 cells were cotransfected with mCLCAl cDNA cloned into the pTet-splice along with a vector expressing a tetracycline activator (pTet-tTak) using standard transfection techniques well known to those skilled in the art and as described above (Lipofectamine, Life Technologies, Inc.). Cells were cotransfected with a reporter vector as described above. In another illustration of this embodiment, human CLCA1, HEK293 cells were transfected with either pcDNA 3.1 containing the CLCA1 insert and a reporter vector (enhanced green fluorescent protein, EGFP, CLONTECH) or the reporter vector alone. Transfection can be carried out by standard techniques known to those skilled in the art including CaPO4 precipitation or Lipofectamine (Life Technologies).
(§2) This embodiment illustrates that the full length cDNAs of the present invention encode calcium sensitive chloride channels. The various cDNAs were used for transfection of a cell line. For electrophysiological studies, cells were also cotransfected with a reporter vector (pEGFP, CLONTECH). Cotransfection with a reporter vector allows for easy identification of transfected cells by visualization under a fluorescent microscope. Whole cell recording was then carried out in the transfected cells to determine the presence of calcium sensitive chloride channels.
(§3) Transfected cells were used for electrophysiological recording. Cells were superfused with a bath solution containing 112 mM NMDG-Cl, 30 mM sucrose, 1 mM EGTA, 0.366 mM CaCl2, 2 mM MgCl2, 5 mM N-2-hydroxy-xyethanylpiperazine-N-2-ethanesulfonic acid. Whole cell channel activity was recorded in transfected cells by using borosilicate glass electrodes (tip resistance 4-9 M ohms) filled with the bath solution. Recordings were carried out in the presence or absence of a […] channel inhibitors (DIDS, niflumic acid and DTT). To determine the effect of ionomycin on channel activity, electrodes filled with standard bath solution containing either 5 mM ATP and 1 mM EGTA in the presence of low intracellular calcium. After gigaohm seal formation, cells were clamped at +20 mV. Whole cell currents were recorded at room temperature, sampled at 5-10 kHz and filtered at 1-2 kHz. The I-V relationship was determined using 300 ms voltage steps from a holding potential of +20 mV to potentials from −100 to +100 mV at 10 mV intervals. To normalize measured membrane currents to membrane currents to membrane capacitance, the capacitive current transient recorded in response to a 10 mV hyperpolarizing pulse was integrated and divided by the given voltage to give total membrane capacitance (Cm) for each cell.

[2] = system: hCLCA1; experiment: whole cell recording in hCLCA1-transfected HEK293 cells; assay type: cell-based, human; settings: for whole cell current after addition of inhibitor: hCLCA1-transfected cells, activated current 11.06 pA/pF
Description: as §1, §2
as §3, with “To determine the effect of ionomycin on channel activity, electrodes filled with standard bath solution containing either 5 mM ATP and 1 mM EGTA in the presence of low intracellular calcium. After gigaohm seal formation, cells were clamped at +20 mV.” left out

[3] = system: hCLCA2; experiment: whole cell recording in hCLCA2-transfected HEK293 cells; assay type: cell-based, human; settings: for sensitivity of the current to inhibitor: DIDS 300 uM, DTT 2 mM, niflumic acid 100 uM, tamoxifen 10 uM
Experimental: For human CLCA2, HEK293 cells were transfected using Lipofectamine using manufacturer's instructions. For example, 5 ul lipid and 0.5 ul of CLCA2 were cloned into pcDNA 3.1 per 35 mm well in a 2-3 hour incubation. For expression studies, the 2,832 bp CLCA2 ORF was PCR amplified from human trachea poly-A^+RNA (Clontech) following reverse transcription with Superscript RNase H reverse transcriptase (Life Technologies) and random hexamer priming. PCR was performed with Pwo DNA Polymerase (Boehringer; initial denaturation at 94° C. for 3 min, 35 cycles of 94° for 50 s, 58° C. for 30s, and 72° C. for 2 min with a time increment of 3 s per cycle for each extension step (72° C.), followed by a final extension step of 72° C. for 8 min). Primer sequences were (upstream primer: SEQ ID NO:41, downstream primer: SEQ ID NO:42 with NotI-linkers underlined). PCR products were gel purified, incubated with NotI, and cloned into the expression vector pcDNA3.1 (Invitrogen). Four different PCR products were sequenced to control for potential PCR-induced sequence errors. Cells were simultaneously cotransfected with a reporter vector as described above. Chloride channel conductance activity was recorded after allowing the cells to recover for 24 hours.
as §2, §3

[4] = system: non-transfected or control-transfected cells; experiment: whole cell recording in non-transfected or control-transfected cells; assay type: cell-based; settings: ionomycin 2 uM
Experimental: as §2
Transfected cells were used for electrophysiological recording. […] Whole cell channel activity was recorded in transfected cells by using borosilicate glass electrodes (tip resistance 4-9 M ohms) filled with the bath solution. […] Whole cell currents were recorded at room temperature, sampled at 5-10 kHz and filtered at 1-2 kHz. The I-V relationship was determined using 300 ms voltage steps from a holding potential of +20 mV to potentials from −100 to +100 mV at 10 mV intervals. To normalize measured membrane currents to membrane currents to membrane capacitance, the capacitive current transient recorded in response to a 10 mV hyperpolarizing pulse was integrated and divided by the given voltage to give total membrane capacitance (Cm) for each cell.

[5] = system: lung-metastatic B16-Fl0 melanoma cells; experiment: tumor cell adhesion assay on Lu-ECAM-1 coated wells; assay type: cell-based; settings: wells coated with 100 μg/ml protein; 10 minutes at 37° C.
Experimental: Recombinant (r) Lu-ECAM-1 and wild type (wt) Lu-ECAM-1 were compared in their adhesion ability to lung-metastatic B16-Fl0 melanoma cells. Using anti-Lu-ECAM-1 mAb 6D3, wtLu-ECAM-1 was purified from extracts of bovine aortic endothelial cells, and rLu-ECAM-1 was purified from extracts of transfected HEK293 cells. The tumor cell adhesion assay was performed as described previously (Zhu et al., 1992, supra). Briefly, 100 μg/ml in phosphate buffered saline of either wtLu-ECAM-1 or rLu-ECAM-1 was used to coat wells of 96 plates overnight at 4° C. Wells were then washed with tissue culture medium, and each well is seeded with a suspension of tissue culture medium and 2×10^4 tumor cells which had been radio-labelled. After being spun onto the coated wells at 15 g for 1 minute, and incubated for 10 minutes at 37° C., nonadherent tumor cells were spun off at 150 g for 5 minutes. Adherent tumor cells were then dissolved in 1% SDS and counted in a liquid scintillation counter. Tumor cell attachment is recorded as the percent cells bound of the total cells seeded. Inhibition of tumor cell adhesion is determined by first incubating the Lu-ECAM-1 coated wells with mAb 6D3 (10 μg/ml) for 1 hour at room temperature before the tumor cells are added.

[6] = system: B1GF10 melanoma cells; settings: mouse, in vivo; cited from earlier work

Row | Molecule | effect on Ca2+ sensitive chloride current under whole cell conditions [1] | whole cell current after addition of inhibitor [2] [pA/pF] | sensitivity of the current to inhibitor [3] | further results
1 | O=S(=O)(O)c1cc(N=C=S)ccc1C=Cc1ccc(N=C=S)cc1S(=O)(=O)O [DIDS] | inhibited | 1.63 | sensitive | whole cell current after perfusion of inhibitor ([1]; 300 uM DIDS, 2 mM Ca2+, basal 12.01±6.31 pA/pF): 1.84 ±0.96 pA/pF
2 | C[C@H](CCC(=O)O)C[C@H](C)C[C@H](C)C(=O)/C=C(\O)[C@H](C)C[C@H](C)C/C=C/[C@@H](C)[C@@H](O)[C@@H](C)[C@@H](O)C[C@@H]1CC[C@@](C)([C@H]2CC[C@@](C)([C@@H](C)O)O2)O1 [ionomycin] |  |  |  | whole cell current at +100 mV with ionomycin ([1]; ionomycin 2 uM, low intracellular free Ca2+, basal 2.05±1.09 pA/pF): 10.23±3.46 pA/pF; maximally activated current at +100 mV after external perfusion of ionomycin ([2]; ionomycin 2 uM, increase from 0.65 pA/pF): 11.06 pA/pF; effect of ionomycin on current in non-transfected or control-transfected cells [4]: No significant effect; activation of the current by ionomycin ([3]; ionomycin 4 uM in bath, pipet about 25 nM Ca2+, 2 mM Ca2+ in the bath): activated the current
3 | O[C@@H](CS)[C@@H](O)CS [DTT] | inhibited | 1.67 | sensitive | 
4 | O=C(O)c1cccnc1Nc1cccc(C(F)(F)F)c1 [niflumic acid] | inhibited | 2.07 | sensitive | 
5 | CC/C(=C(\c1ccccc1)c1ccc(OCCN(C)C)cc1)c1ccccc1 [tamoxifen] |  |  | sensitive | 
6 | wtLu-ECAM-1: wild type Lu-ECAM-1 purified with mAb 6D3 from extracts of bovine aortic endothelial cells (protein, OTHER INFORMATION: Lu-ECAM-1 precursor from bovine endothelial cells, wild type Lu-ECAM-1 purified with mAb 6D3 from extracts of bovine aortic endothelial cells) MVLCLNVILFLTLHLLPGMKSSMVNLINNGYDGIVIAINPSVPEDEKLIENIKEMVTEASTYLFHATKRRVYFRNVSILIPMTWKSKSEYFIPKQESYDQADVIVANPYLKYGDDPYTLQYGRCGEKGKYIHFTPNFLLTNNFHIYGSRGRVFVHEWAHLRWGIFDEYNVDQPFYISRKNTIEATRCSTHITGINVVFKKCPGGSCITSLCRRDSQTGLYEAKCTFLPKKSQTAKESIMFMPSLHSVTEFCTEKTHNTEAPNLQNKMCNGKSTWDVIMNSVDFQNTSPMTEMNPPTHPTFSLLKSKQRVVCLVLDKSGSMSAEDRLFQMNQAAELYLIQVIEKGSLVGMVTFDSVAEIQNHLTRITDDNVYQKITAKLPQVANGGTSICRGLKAGFQAIIHSDQSTSGSEIILLTDGEDNEINSCFEDVKRSGAIIHTIALGPSAAKELETKSNMTGGYRFFANKDITGLTNAFSRISSRSGSITQQAIQLESKALKITGRKRVNGTVPVDSTVGNDTFFVVTWTIQKPEIVLQDPKGKKYKTSDFKEDKLNIRSARLQIPGIAETGTWTYSLLNNHASSQMLTVTVTTRARSPTIPPVIATAHMSQHTAHYPSPMIVYAQVSQGFLPVLGISVIAIIETEDGHQVTLELWDNGAGRDTVKNDGIYSRYFTDYYGNGRYSLKVHAQARNNTARLNLRQPQNKVLYVPGYVENGKIILNPPRPEVKDDLAKAKIEDFSRLTSGGSFTVSGAPPPGNHPSVFPPSKITDLEAKFKEDYIQLSWTAPGNVLDKGKANSYIIRISKSFMDRQEDFDNATLVNTSNLIPKEAGSKENFEFKPEHFRVENGTKFYISVQAINEANLISEVSHIVQAIKFIPLPEDSVHDLGTKISEITLAILGLPMIFSVF |  |  |  | adhesion of lung-metastatic tumor cells supported (percent cells bound of the total cells seeded) [5]: 43%; prevention or inhibition of metastatic colonization of the lungs by B1GF10 cells [6]: inhibition of metastatic colonization
